Molecular target: T1, Alpha-1A adrenergic receptor (Rattus norvegicus, UniProt P43140)
T1 sequence (P43140 whole entry): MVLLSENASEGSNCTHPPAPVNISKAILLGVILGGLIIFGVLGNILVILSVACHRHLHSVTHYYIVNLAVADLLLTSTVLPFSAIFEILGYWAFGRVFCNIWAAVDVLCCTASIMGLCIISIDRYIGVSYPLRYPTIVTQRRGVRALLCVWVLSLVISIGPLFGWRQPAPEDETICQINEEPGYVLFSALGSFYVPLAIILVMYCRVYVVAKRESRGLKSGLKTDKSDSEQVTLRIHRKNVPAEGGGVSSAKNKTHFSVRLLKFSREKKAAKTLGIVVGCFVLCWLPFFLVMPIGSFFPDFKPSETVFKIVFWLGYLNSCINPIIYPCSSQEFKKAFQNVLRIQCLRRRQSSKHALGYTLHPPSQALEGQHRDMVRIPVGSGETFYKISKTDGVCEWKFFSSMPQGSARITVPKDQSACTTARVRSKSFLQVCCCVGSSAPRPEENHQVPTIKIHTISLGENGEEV

## c1ccc2c(c1)OCC(C1=NCCN1)O2 (stereo unspecified)
  Ki: 91 nM

Reference: BindingDB's records for doi:10.1007/bf00506193 (1984)
